Laboratory results: patent US20200054589A1, “COMBINATION OF A PPAR AGONIST WITH A FXR AGONIST” (Genfit, priority 2017, published 2020)

Tests used:
[1] = tested on: TGFβ1-induced human primary hepatic stellate cells (hHSC), α-SMA; test: α-SMA ELISA in TGFβ1-activated hHSC (in vitro model of hepatic fibrogenesis), synergy by Excess Over Bliss; type: cell-based; settings: TGFβ1 1 ng/ml, 48 h
Description: The human primary hepatic stellate cells (hHSC) (Innoprot) were cultured in STeCM medium (ScienCell cat #5301) supplemented with 2% fetal bovine serum (FBS, ScienCell cat #0010), 1% penicillin/streptomycin (ScienCell cat #0503) and stellate cell growth supplement (SteCGS; ScienCell cat #5352). Cell-culture flasks were coated with Poly-L Lysine (Sigma cat # P4707) for a better adherence.
The FXR agonist INT-767 (CAS #1000403-03-1, Cat # HY-12434, batch #19249) was obtained commercially from Haoyuan Chemexpress. For these experiments, a checkerboard matrix was generated. […]
The level of α-SMA was measured using a Sandwich ELISA. […]
The values obtained in the αSMA ELISA assays were first transformed into percentage inhibitions over TGF-β1 control. Then, using these percentage inhibitions, EOB (Excess Over Bliss) was determined to define the synergistic effects of drug combinations. Expected Bliss additivism score (E) was firstly determined by the equation: […]
For the combinations INT-767/Elafibranor, an additional total Bliss score was calculated by summation of all EOB. […]
The significance of the observed differences between INT-767/Elafibranor over the highest single agent was determined by a student's t-test. *: p<0.05; **: p<0.01; ***: p<0.001.

[2] = tested on: genes involved in tissue remodeling and inflammation (αSMA (ACTA2), TIMP1, TGFB1, CCR5) in CDAA/chol fed rat livers; test: Hepatic gene expression analysis (quantitative PCR) in CDAA+1% cholesterol model; type: in vivo, Wistar rats; settings: liver; Percentage over the untreated CDAA + 1% cholesterol rats; 12 weeks; GFT505 3 mg/kg/d, OCA 10 mg/kg/d, or GFT505 + OCA
Description: (§1) The preventive effects of Elafibranor (GFT505) alone, OCA alone and the combination of both were assessed in a fibrosing NASH-model of rats fed a CDAA+1% cholesterol diet. 150-175 g male Wistar rats were fed a control (CSAA) diet, CDAA+1% cholesterol diet, or CDAA+1% cholesterol diet supplemented with Elafibranor 1, 3 and 10 mg/kg/day, OCA 10 and 30 mg/kg/day or combined drugs (Elafibranor 1, 3 and 10 mg/kg/day combined to OCA 10 mg/kg/day) for 12 weeks.
(§2) The body weight and the food intake were monitored twice per week. On the last day of treatment, rats were sacrificed after a 6 h fasting period. The liver was rapidly excised for biochemical and histological studies.
Total RNA was isolated from rat livers using RNeasy Mini Kit (Qiagen) following manufacturer's instructions. Total RNA were reverse transcribed into cDNA using M-MLV RT (Moloney Murine Leukemia Virus Reverse Transcriptase) (Invitrogen cat #28025) in 1× RT buffer (Invitrogen), 0.5 mM DTT (Invitrogen), 0.18 mM dNTPs (Promega), 200 ng pdN6 (Amersham) and 30 U of RNase inhibitor (Promega).
Quantitative PCR was then carried out using the CFX96 Touch™ Real-Time PCR Detection System (Biorad). Briefly, the PCR reactions were performed in 96-WP format in 25 μl of total volume containing 1 μL of reverse transcription reaction, 0.5 μL of reverse and forward primers (10 pmol each), and 12.5 μl of 2× iQ SYBR Green Supermix (BioRad), using the following primer sequences:
Expression levels were normalized using the expression of Rplp0 gene as a reference in samples. For each gene, the standard curves were drawn by selecting the best points (at least three points) in order to have PCR reaction efficiency close to 100% and a correlation coefficient close to 1. Expression levels were determined using the standard curve equation for both the housekeeping gene and the target gene (taking into account the specific PCR efficiency of each target gene).

[3] = tested on: fibrosing NASH-model of rats fed a CDAA+1% cholesterol diet; test: Hepatic collagen content (hydroxyproline, QuickZyme) in CDAA+1% cholesterol model; type: in vivo, Wistar rats; settings: Percentage over the untreated CDAA + 1% cholesterol rats; 12 weeks; GFT505 3 mg/kg/d, OCA 10 mg/kg/d, or GFT505 + OCA; mean ± SD
Description: as §1, §2
The hepatic collagen content was determined using the appropriate QuickZyme kit (Total collagen assay, cat # QZB-totcol2). The assay is based on the detection of hydroxyproline, which is a non-proteinogenic amino acid mainly found in the triple helix of collagen. Thus, hydroxyproline in tissue hydrolysates can be used as a direct measure of the amount of collagen present in the tissue (without discrimination between procollagen, mature collagen and collagen degradation products). Complete hydrolysis of tissue samples in 6M HCl at 95° C. is required before dosing the hydroxyproline. The assay results in the generation of a chromogen with a maximum absorbance at 570 nm. Results are expressed as mg of collagen/g of liver.

[4] = tested on: fibrosing NASH-model of rats fed a CDAA+1% cholesterol diet; test: Liver histology (picrosirius fibrosis surface, NASH lesions) in chronic CDAA+1% cholesterol model (12 weeks); type: in vivo, Wistar rats
Description: as §1, §2
The liver slices were first fixed for 12 hours in formalin 4% solution. Then, the liver pieces were washed 30 minutes in PBS, and dehydrated in ethanol solutions (successive baths at 70, 80, 95 and 100% ethanol). The liver pieces were incubated in three different baths of Xylene (Sigma-Aldrich cat #534056), followed by two baths in liquid paraffin (56° C.). Liver pieces were then put into racks that were gently filled with Histowax® to completely cover the tissue. The paraffin blocks containing the tissue pieces were removed from the racks and stored at room temperature. The liver blocks were cut into […] slices.
Liver sections were deparaffinized, rehydrated and incubated for 15 minutes in a solution of Fast Green FCF 0.1% (Sigma-Aldrich, cat # F7258) before rinsing in a bath of 0.5% acetic acid (Panreac, cat #131008.1611). […]
A technician blinded to the source of each liver specimen performed histological examinations. […] Briefly, steatosis, lobular inflammation and hepatocytes ballooning were scored. […]
Using Quant Center software (3D Histech, including Pattern Quant and Histo Quant modules), collagen-stained areas were quantified. […] The fibrosis area was then expressed as the percentage of the collagen surface to the whole tissue per animal.

Row | Structure (SMILES) | antifibrotic activity (α-SMA inhibition), in words ([1]; 1.9 μM of INT-767 alone) | inhibition at 30 µM ([1]; Homo sapiens, highest dose of INT-767 tested, 30 μM, read-out: α-SMA production inhibition over TGFβ1 control) [%] | CCR5 mRNA level (marker of inflammation) [2] | TGFβ1 mRNA level [2] | TIMP1 mRNA level [2] | α-SMA mRNA level [2] | Hepatic collagen content [3] | effects on ballooning and lobular inflammation, in words ([4]; CDAA/chol diet-induced NASH model) | effect on fibrosis development, in words (FIGS. 1-2) ([4]; CDAA/chol fed rats, 12 weeks, fibrosis surface and hepatic collagen) | Fibrosis surface ([4]; Percentage over the untreated CDAA + 1% cholesterol rats, 12 weeks in diet, GFT505 3 mg/kg/d, OCA 10 mg/kg/d, or GFT505 + OCA, mean ± SD)
1 | CC[C@H]1[C@@H](O)[C@@H]2[C@H](CC[C@]3(C)[C@@H]([C@H](C)CCOS(=O)(=O)[O-])CC[C@@H]23)[C@@]2(C)CC[C@@H](O)C[C@@H]12.[Na+] [INT-767] | does not show any antifibrotic activity | 13 | – | – | – | – | – | – | – | –
2 | CC[C@H]1[C@@H](O)[C@@H]2[C@H](CC[C@]3(C)[C@@H]([C@H](C)CCC(=O)O)CC[C@@H]23)[C@@]2(C)CC[C@@H](O)C[C@@H]12 [OCA, 6α-ethyl chenodeoxycholic acid] | – | – | 81% ± 28% | 110% ± 23% | 110% ± 43% | 109% ± 68% | 67% ± 23% | rather modest | does not attenuate fibrosis in a significant manner | 74% ± 45%
